{"source": "paper PMC8354611", "about": "“Orientin mediates protection against MRSA-induced pneumonia by inhibiting Sortase A” (Virulence, 2021)", "key": {"S. aureus USA300 [1]": {"tested_on": "S. aureus USA300", "experiment": "Adherence of S. aureus to immobilized fibrinogen", "assay_type": "cell-based", "settings": "WT S. aureus treated with 200 µM orientin", "protocol": "The S. aureus USA300 was grown in BHI broth for 12 h and then diluted (1:100) in fresh BHI containing different concentrations of orientin, then continued to culture until an OD600 reached 0.5. The ∆srtA mutant was cultured under the same conditions as a positive control. Subsequently, the bacterial culture was added to a 96-well plate previously coated with bovine fibrinogen (20 µg/mL). Then, the sample was incubated for 2 h at 37°C, and 25% (v/v) formaldehyde was added to fix the adherent bacterial cells for 30 min after discarding the suspension. The formaldehyde was removed, and the plate was washed twice with PBS, following which, crystal violet was added to stain the cells for 20 min. The wells were gently washed with PBS and dried, and the OD value at 570 nm was measured."}, "WT-SrtA": {"target": "T1, WT-SrtA (Staphylococcus aureus, UniProt Q2FV99)", "T1 construct": "6xHis (N); made in house; host or cells: E. coli BL21(DE3), pET28a", "experiment": "Fluorescence quenching assay, WT-SrtA", "assay_type": "binding, S. aureus USA300", "protocol": "(§1) The sequence of srtA from S. aureus USA300 was retrieved from the GenBank database. The srtA gene lacking the transmembrane domain (N1–59) was amplified using PCR. The PCR product was then digested and cloned in the BamHI/XhoI restriction sites of the pET28a vector, yielding pET28a-srtA. The site-directed mutagenesis of T93A-SrtA, E105A-SrtA, and C184A-SrtA was conducted using pET28a-srtA using a Multi-Site Mutagenesis Kit (Transgen, Beijing, China). The expression vector was then transformed into the BL21(DE3) expression host, and the bacteria were cultured in BHI medium supplemented with kanamycin (50 µg/mL) at 37°C. In addition, isopropyl-β-D-thiogalactoside (1 mM) was used to induce recombinant SrtA for 4 h at 16°C. Whole-cell lysates of bacteria were prepared through ultrasonic crushing. Recombinant SrtAΔN59 or its mutants were purified using the 6 × His/Ni-NTA system refer to a previous study.\n(§2) The binding constants (KA) of orientin to SrtA were determined using the fluorescence quenching assay. The spectra were recorded in the wavelength interval of 280–400 nm. The protocols used to perform the measurements have previously been described [[31–33]]."}, "SrtA [2]": {"target": "T2, SrtA (Staphylococcus aureus, UniProt Q2FV99)", "T2 construct": "6xHis (N); made in house; host or cells: E. coli BL21(DE3), pET28a", "experiment": "Reversible inhibition assay of SrtA", "assay_type": "biochemical, S. aureus USA300", "settings": "SrtA incubated with 10-fold IC50 of orientin, then diluted", "protocol": "The 10-fold IC50 concentration of orientin was incubated with 100 µL of SrtA (150 µM) for 1 h at 37°C, followed by the addition of 9.9 mL reaction buffer. Then, 190 µL of the mixture was added to each well, and substrate peptide (10 μL) was added until a final concentration of 10 μM was achieved. A multifunctional microplate reader was used to record the fluorescence intensity at 350 nm for excitation and 495 nm for emission."}, "SrtA [3]": {"target": "T2, SrtA", "experiment": "FRET assay of SrtA inhibition (cleavage of Abz-LPATG-Dap(Dnp)-NH2)", "assay_type": "biochemical, S. aureus USA300", "protocol": "Fluorescence resonance energy transfer (FRET) was detected the activity of orientin against SrtA, as previously described. The reaction mixture (300 µL) consisted of the reaction buffer (50 mM Tris-HCl, 5 mM CaCl2, 150 mM NaCl, pH 7.5), 4 µM purified SrtA, and various concentrations of orientin (0–200 µM). The sample was incubated at 37°C for 1 h, followed by the addition of substrate peptide (10 μM). After incubation for another hour at 37°C, the fluorescence intensity value was detected at the excitation and emission wavelengths of 350 nm and 495 nm, respectively."}, "expression of SrtA": {"tested_on": "expression of SrtA", "experiment": "Western blot analysis of SrtA expression", "assay_type": "cell-based, S. aureus", "settings": "orientin 0, 25, 50, 100 or 200 µM", "protocol": "An equal amount of protein extract was separated using SDS-PAGE, followed by transfer to the polyvinylidene difluoride (PVDF) membrane (GE Healthcare, UK). The membrane was incubated in 5% BSA overnight at 4°C. After washing with TBST (TBS + 1‰ Tween 20), the membrane was incubated with rabbit anti-SrtA polyclonal antibody (1:3000) at room temperature. After incubation for 2 h, the membrane was washed thrice and incubated with HRP-conjugated goat anti-rabbit IgG (diluted 1:10,000 in TBST) for 2 h. After washing thrice, the membrane was incubated with Super ECL Plus (US EVERBRIGHT, Suzhou, China) and visualized in an ECL detection system (GE Healthcare, UK). The cytoplasmic protein ClpP was treated in the same way as an internal control. Band quantification was performed using the software ImageQuant TL."}, "D170A": {"tested_on": "D170A", "experiment": "Fluorescence quenching assay, SrtA mutant D170A", "assay_type": "binding, S. aureus USA300"}, "C184A": {"target": "T3, C184A (Staphylococcus aureus, UniProt Q2FV99, C184A)", "T3 construct": "6xHis (N); made in house; host or cells: E. coli BL21(DE3), pET28a", "experiment": "Fluorescence quenching assay, SrtA mutant C184A", "assay_type": "binding, S. aureus USA300", "protocol": "as §1, §2"}, "[4]": {"tested_on": "S. aureus internalization into A549 cells", "experiment": "Invasion assay of S. aureus into A549 cells", "assay_type": "cell-based", "settings": "S. aureus treated with 100 µM orientin, vs untreated WT, P < 0.001", "protocol": "The A549 cells were routinely sub-cultured at 37°C with 5% CO2. Cells in the logarithmic growth phase were seeded in a 24-well plate at a density of 2.5 × 10^5 per well and cultured for 20 h. S. aureus was mixed with orientin ranging from 0 to 100 µM and cultured at 37°C until an OD600 of 1.0 was reached. Then, the cell culture medium was discarded, and the cells were resuspended in DMEM medium. After that, a bacterial suspension containing 2 × 10^7 CFU/mL was added to each well. After incubation for 2 h, 300 µg/mL gentamicin was added to stop the invasion. Then, the cells were lysed after washing with sterile PBS and spread on BHI agar plates to calculate the number of colonies in each sample."}, "S. aureus biofilm": {"tested_on": "S. aureus biofilm", "experiment": "Crystal violet biofilm assay", "assay_type": "cell-based", "settings": "200 µM orientin, compared to the WT group (untreated S. aureus)", "protocol": "After overnight culturing, S. aureus was diluted using fresh BHI by 1:100, and different concentrations of orientin ranging from 0 to 200 μM were added with shaking at 37°C to OD600 of 0.6. The bacterial culture (5 µL) was then added to BHI broth containing 1% glucose to a final volume of 200 µL and continue cultured for 18 h. Then, the medium was discarded carefully and washed three times with PBS. Then, the biofilms were stained with a 0.1% (w/v) crystal violet solution for 20 min at ambient temperature conditions. The crystal violet solution was discarded, and the wells were washed thrice with sterile PBS. After drying the plates, 95% ethanol was added into each well, and the absorbance at 570 nm was measured."}, "E105A": {"target": "T4, E105A (Staphylococcus aureus, UniProt Q2FV99, E105A)", "T4 construct": "6xHis (N); made in house; host or cells: E. coli BL21(DE3), pET28a", "experiment": "Fluorescence quenching assay, SrtA mutant E105A", "assay_type": "binding, S. aureus USA300", "protocol": "as §1, §2"}, "S. aureus USA300 [5]": {"tested_on": "S. aureus USA300", "experiment": "Growth curve assay", "assay_type": "cell-based", "settings": "200 µM orientin, growth curve in BHI", "protocol": "(§3) The broth microdilution method was performed to determine the MIC of orientin for S. aureus USA300 as previously described. Briefly, orientin was diluted two-fold serially in a 96-well plate at concentrations ranging from 2 to 1024 µg/mL, followed by inoculation with S. aureus USA300 (10^6 CFU/mL) and incubation at 37°C for 16 h. After incubation, the absorbance (OD) value at 600 nm was measured. For the growth curve experiment, the overnight bacterial culture was diluted in fresh BHI (1:100) with various concentrations of orientin (0–200 µM). S. aureus ΔsrtA was used as the control group. Each sample was cultured at 37°C, and the OD600 was measured at 1 h intervals."}, "S. aureus USA300 [6]": {"tested_on": "S. aureus USA300", "experiment": "Broth microdilution MIC", "assay_type": "cell-based", "settings": "Staphylococcus aureus, USA300, 16 h", "protocol": "as §3"}, "S. aureus": {"tested_on": "S. aureus", "experiment": "Pneumonia model experiment", "assay_type": "in vivo, C57BL/6 J mice", "settings": "mice", "protocol": "The pneumonia model was induced as previously described in 7-week-old female C57BL/6 J mice. For survival experiments, a group of 10 mice was infected with 30 µL of S. aureus culture (2 × 10^8 CFUs) via the intranasal route. An hour after infection, the mice were intraperitoneally injected with orientin (100 mg/kg) at intervals of 12 h. Similarly, mice in the control group were injected with sterile PBS containing 0.5% DMSO. The mice were monitored every 12 h for 96 h after administration to calculate the survival rate. For estimation of the bacterial count in the lung tissue and histopathological analysis, the mice were infected with 30 µL (1 × 10^8 CFUs) of S. aureus cultures, and the infection was allowed to progress for 2 d. The mice were then sacrificed, and the lungs were collected, weighed, and homogenized. Then, appropriate dilutions were plated on BHI-agar plates until a single colony appeared and counted. The lung tissues of mice in each group were aseptically separated and fixed in 10% formalin. The lung tissue sections were observed under an optical microscope after conventional hematoxylin and eosin (H&E) staining."}, "[7]": {"tested_on": "Staphylococcal protein A (SpA) anchoring to the cell wall", "experiment": "FITC-IgG binding to Staphylococcal protein A (SpA)", "assay_type": "cell-based, S. aureus", "settings": "200 µM orientin, compared to the WT group", "protocol": "Overnight culture of S. aureus and S. aureus ΔsrtA was diluted 1:1000 in TSB medium, and different concentrations of orientin (0–200 µM) were added to the culture with shaking at 37°C until the logarithmic growth phase. The bacteria collected by centrifugation were washed thrice with PBS, after which the bacterial precipitate was resuspended with 50 µL of 1:200 diluted FITC-labeled rabbit IgG (Solarbio, Beijing, China). Then, the bacterial precipitate was incubated at ambient temperature for 30 min, and the harvested bacteria were rinsed thrice by PBS. Then, the bacteria were resuspended in 100 µL PBS and added to a black 96-well plate. The Multimode Microplate Reader (Tecan, Spark 20 M) was used to measure the fluorescence intensity at 490 nm for excitation and 520 nm for emission."}}, "note": "Several values for one entry are separate records, joined by “and”; a condition that tells them apart may be missing. Equal values may be shown once. Marks after values point to notes of the source that are not given here.", "data": [{"compound": "O=c1cc(-c2ccc(O)c(O)c2)oc2c([C@@H]3O[C@H](CO)[C@@H](O)[C@H](O)[C@H]3O)c(O)cc(O)c12", "note": "[orientin]", "values": [{"measurement": "adhesion of S. aureus to fibrinogen", "setting": "S. aureus USA300 [1]", "value": "33.10 ± 1.41", "unit": "%"}, {"measurement": "Kd", "setting": "WT-SrtA", "value": 14, "unit": "µM"}, {"measurement": "reversibility of SrtA inhibition", "setting": "SrtA [2]", "value": "reversible inhibitor"}, {"measurement": "activity of SrtA recovered (relative activity)", "setting": "SrtA [2]; untreated SrtA = 100% activity", "value": "84.77 ± 1.28% and 84.77%"}, {"measurement": "IC50", "setting": "SrtA [3]", "value": "50.4 ± 0.51", "unit": "µM"}, {"measurement": "effect on the expression of SrtA", "setting": "expression of SrtA", "value": "not to affect the expression of SrtA"}, {"measurement": "KA", "setting": "D170A", "value": "5.37* 1 × 10^4 l/mol"}, {"measurement": "Kd", "setting": "C184A", "value": 32.1, "unit": "µM"}, {"measurement": "ability of S. aureus to invade A549 cells", "setting": "[4]", "value": "decreased significantly"}, {"measurement": "biofilm biomass", "setting": "S. aureus biofilm", "value": "31.90 ± 0.25", "unit": "%"}, {"measurement": "Kd", "setting": "E105A", "value": 23.5, "unit": "µM"}, {"measurement": "effect on S. aureus growth", "setting": "S. aureus USA300 [5]", "value": "little inhibitory effect"}, {"measurement": "MIC", "setting": "S. aureus USA300 [6]", "value": "> 512", "unit": "µg/mL"}, {"measurement": "number of viable S. aureus in the lung tissue", "setting": "S. aureus; 100 mg/kg orientin, 2 d after infection, vs untreated group, P < 0.001", "value": "significantly reduced"}, {"measurement": "lung histopathology", "setting": "S. aureus; 100 mg/kg orientin, H&E staining", "value": "inflammatory symptoms were significantly reduced"}, {"measurement": "survival rate", "setting": "S. aureus; lethal dose of S. aureus intranasal, 100 mg/kg orientin intraperitoneally at intervals of 12 h, within 72 h", "value": 60, "unit": "%"}, {"measurement": "relative activity (fluorescence of FITC-IgG bound to SpA)", "setting": "[7]", "value": "37.32 ± 1.84", "unit": "%"}]}]}
